According to patent US11666578B2, “Small molecule inhibitors of CDK12/CDK13” (The Scripps Research Institute, priority 2018, dated 2023):
≈ marks a conversion by molar mass, not a printed value. Where “and” joins values, the source holds several entries; their conditions need not be identical. Equal values may be shown once. Read-outs that look alike come from different tables or passages of the source.

Assays:
other CDKs (CDK panel) = assay: Selectivity in CDK panel (% of inhibition at 10 μM); assay type: biochemical; settings: FIG. 2
Description: FIGS. 2a and 2b. Selectivity of selected CDK12/13 inhibitors against other CDKs (% of inhibition at 10 μM)

CK1ε = CK1ε (Homo sapiens, UniProt P49674); assay: In-house kinase inhibition assay, CK1ε; assay type: biochemical
Source text: (§1) [drawing 21] wherein the substituents W, X, Y, Z, and R^1, are as specified in the respective Table columns.

CK1δ = CK1δ (Homo sapiens, UniProt P48730); assay: In-house kinase inhibition assay, CK1δ; assay type: biochemical
Source text: as §1

[1] = Solubility in pH 7.4 phosphate buffered saline; assay type: physicochemical; settings: aqueous buffer
[2] = Microsome stability, mouse liver microsomes; assay type: in vitro ADME; settings: read-out: Microsome stability t1/2
[3] = Microsome stability, rat liver microsomes; assay type: in vitro ADME; settings: read-out: Microsome stability t1/2 (R)
CYP 2D6 = CYP 2D6 (Homo sapiens, UniProt P10635); assay: Cytochrome P450 inhibition assay, 2D6; assay type: in vitro ADME
[4] = Microsome stability, human liver microsomes; assay type: in vitro ADME; settings: read-out: Microsome stability t1/2 (H)
CYP 2C9 = CYP 2C9 (Homo sapiens, UniProt P11712); assay: Cytochrome P450 inhibition assay, 2C9; assay type: in vitro ADME
CYP 3A4 = CYP 3A4 (Homo sapiens, UniProt P08684); assay: Cytochrome P450 inhibition assay, 3A4; assay type: in vitro ADME
CYP 1A2 = biological target: T1, CYP 1A2 (Homo sapiens, UniProt P05177); assay: Cytochrome P450 inhibition assay, 1A2; assay type: in vitro ADME
T1 sequence (P05177 1-516): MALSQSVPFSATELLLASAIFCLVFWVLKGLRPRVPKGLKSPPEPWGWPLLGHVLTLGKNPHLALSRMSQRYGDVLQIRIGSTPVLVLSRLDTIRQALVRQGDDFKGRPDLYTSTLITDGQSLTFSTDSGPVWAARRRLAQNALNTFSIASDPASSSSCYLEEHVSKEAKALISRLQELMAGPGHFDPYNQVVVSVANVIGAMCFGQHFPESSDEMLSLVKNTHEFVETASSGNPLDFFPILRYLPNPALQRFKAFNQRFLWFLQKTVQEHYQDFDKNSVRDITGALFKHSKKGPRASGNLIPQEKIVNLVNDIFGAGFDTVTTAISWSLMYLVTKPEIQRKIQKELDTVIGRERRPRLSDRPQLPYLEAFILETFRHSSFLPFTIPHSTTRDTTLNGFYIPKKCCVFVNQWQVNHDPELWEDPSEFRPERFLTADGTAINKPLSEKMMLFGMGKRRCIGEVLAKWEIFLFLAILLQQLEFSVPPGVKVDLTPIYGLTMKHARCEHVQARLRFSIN

CDK13 = biological target: T2, CDK13 (Homo sapiens, UniProt Q14004); assay: Competition binding assay, DiscoverX (Kinomescan), CDK13
T2 construct: purchased DiscoverX
Source text: as §1
In addition to screening a selected set of new inhibitors in CDK12/13 enzyme assays using Kinomescan™ technology, we tested all new compounds in a mechanism of action assay, which detects inhibition of phosphorylation of serine 2 (pSer2) on the C-terminal repeat domain (CTD) of RNA pol II. […] In order to confirm that CDK12/13 inhibition is driving cell death, we also plotted the growth inhibition pIC50's with pSer2 inhibition data. There was a good correlation when using the cell proliferation data from both U87 and MDA-MB-231 cell lines (FIGS. 5 and 6).

Mouse PK = assay type: in vivo; settings: for AUC: read-out: AUCINF_dos (converted)
CDK12 = biological target: T3, CDK12 (Homo sapiens, UniProt Q9NYV4); assay: Competition binding assay, DiscoverX (Kinomescan), CDK12
T3 construct: purchased DiscoverX
Source text: as §1
In addition to screening a selected set of new inhibitors in CDK12/13 enzyme assays using Kinomescan™ technology, we tested all new compounds in a mechanism of action assay, which detects inhibition of phosphorylation of serine 2 (pSer2) on the C-terminal repeat domain (CTD) of RNA pol II.

MDA-MB-231 cell line = assay: Cell proliferation / growth inhibition, MDA-MB-231, 72 h (Cell-Titer Glo); assay type: cell-based; settings: Homo sapiens
U87 cell line = assay: Cell proliferation / growth inhibition, U87, 72 h (Cell-Titer Glo); assay type: cell-based; settings: Homo sapiens, U-87 MG
[5] = read-out: CK1δ IC50, read-out: CK1σ IC50

Chain of CYP 2C9 (P11712 whole entry): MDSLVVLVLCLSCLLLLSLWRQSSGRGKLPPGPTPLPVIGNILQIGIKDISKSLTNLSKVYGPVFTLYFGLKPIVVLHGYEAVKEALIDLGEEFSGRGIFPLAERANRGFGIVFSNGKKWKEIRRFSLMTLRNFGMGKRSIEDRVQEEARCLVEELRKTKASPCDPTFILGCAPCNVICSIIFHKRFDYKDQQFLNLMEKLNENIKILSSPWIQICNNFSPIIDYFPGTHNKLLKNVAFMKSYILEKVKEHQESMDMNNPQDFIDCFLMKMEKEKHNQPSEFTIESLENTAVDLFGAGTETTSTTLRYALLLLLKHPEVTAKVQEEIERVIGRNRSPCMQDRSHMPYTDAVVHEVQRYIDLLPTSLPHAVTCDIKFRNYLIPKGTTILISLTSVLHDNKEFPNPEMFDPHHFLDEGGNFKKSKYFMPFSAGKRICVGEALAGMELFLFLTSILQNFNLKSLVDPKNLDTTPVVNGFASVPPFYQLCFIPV
Chain of CK1ε (P49674 whole entry): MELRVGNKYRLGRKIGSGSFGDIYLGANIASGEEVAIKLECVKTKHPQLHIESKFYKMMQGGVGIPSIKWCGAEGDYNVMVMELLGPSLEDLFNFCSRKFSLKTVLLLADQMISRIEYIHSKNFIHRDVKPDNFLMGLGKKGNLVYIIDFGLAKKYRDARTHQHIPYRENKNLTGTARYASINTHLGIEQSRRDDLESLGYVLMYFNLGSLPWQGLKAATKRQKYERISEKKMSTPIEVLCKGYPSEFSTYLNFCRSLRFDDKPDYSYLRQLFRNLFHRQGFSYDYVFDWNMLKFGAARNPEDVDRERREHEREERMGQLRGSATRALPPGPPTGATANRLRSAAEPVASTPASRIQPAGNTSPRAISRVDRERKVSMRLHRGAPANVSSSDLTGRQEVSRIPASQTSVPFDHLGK
Chain of CYP 2D6 (P10635 whole entry): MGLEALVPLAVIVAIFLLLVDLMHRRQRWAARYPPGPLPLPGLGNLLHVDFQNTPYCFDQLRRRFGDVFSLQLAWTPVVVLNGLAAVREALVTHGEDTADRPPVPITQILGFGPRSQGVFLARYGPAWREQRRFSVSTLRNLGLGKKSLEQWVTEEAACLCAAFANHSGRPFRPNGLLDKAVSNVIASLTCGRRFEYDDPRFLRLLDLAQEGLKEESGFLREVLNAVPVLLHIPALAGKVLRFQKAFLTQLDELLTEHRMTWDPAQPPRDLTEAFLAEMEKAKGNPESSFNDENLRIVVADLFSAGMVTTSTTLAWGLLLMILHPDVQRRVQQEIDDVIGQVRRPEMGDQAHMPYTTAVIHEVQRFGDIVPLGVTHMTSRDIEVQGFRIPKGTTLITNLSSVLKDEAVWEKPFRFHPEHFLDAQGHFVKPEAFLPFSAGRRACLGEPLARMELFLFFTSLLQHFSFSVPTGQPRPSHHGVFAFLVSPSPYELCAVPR
Chain of CYP 3A4 (P08684 whole entry): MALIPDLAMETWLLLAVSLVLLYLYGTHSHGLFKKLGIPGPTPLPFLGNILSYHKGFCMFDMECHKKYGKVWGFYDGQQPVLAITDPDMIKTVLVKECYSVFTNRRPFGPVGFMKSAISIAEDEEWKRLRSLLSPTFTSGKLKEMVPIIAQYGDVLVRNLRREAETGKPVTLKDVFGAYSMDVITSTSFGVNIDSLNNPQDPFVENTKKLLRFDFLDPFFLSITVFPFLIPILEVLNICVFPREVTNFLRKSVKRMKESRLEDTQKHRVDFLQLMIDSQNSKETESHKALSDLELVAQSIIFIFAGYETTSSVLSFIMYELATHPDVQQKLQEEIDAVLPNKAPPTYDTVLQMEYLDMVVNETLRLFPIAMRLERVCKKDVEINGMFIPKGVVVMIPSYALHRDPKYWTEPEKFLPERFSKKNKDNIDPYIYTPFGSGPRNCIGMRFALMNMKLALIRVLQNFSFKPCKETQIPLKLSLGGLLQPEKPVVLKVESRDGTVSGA
Chain of CK1δ (P48730 whole entry): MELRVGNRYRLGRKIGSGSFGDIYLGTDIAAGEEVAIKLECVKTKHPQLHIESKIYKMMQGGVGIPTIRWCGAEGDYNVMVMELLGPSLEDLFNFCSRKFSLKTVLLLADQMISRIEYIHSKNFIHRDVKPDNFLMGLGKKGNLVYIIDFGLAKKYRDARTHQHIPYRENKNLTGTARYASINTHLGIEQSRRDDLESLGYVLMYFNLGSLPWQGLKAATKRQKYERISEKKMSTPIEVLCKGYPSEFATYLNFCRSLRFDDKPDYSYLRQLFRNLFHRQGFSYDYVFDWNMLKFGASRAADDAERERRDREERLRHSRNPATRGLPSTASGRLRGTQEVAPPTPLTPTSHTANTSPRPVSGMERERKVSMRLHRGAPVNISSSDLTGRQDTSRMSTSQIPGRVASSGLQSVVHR
T2 sequence (Q14004 whole entry): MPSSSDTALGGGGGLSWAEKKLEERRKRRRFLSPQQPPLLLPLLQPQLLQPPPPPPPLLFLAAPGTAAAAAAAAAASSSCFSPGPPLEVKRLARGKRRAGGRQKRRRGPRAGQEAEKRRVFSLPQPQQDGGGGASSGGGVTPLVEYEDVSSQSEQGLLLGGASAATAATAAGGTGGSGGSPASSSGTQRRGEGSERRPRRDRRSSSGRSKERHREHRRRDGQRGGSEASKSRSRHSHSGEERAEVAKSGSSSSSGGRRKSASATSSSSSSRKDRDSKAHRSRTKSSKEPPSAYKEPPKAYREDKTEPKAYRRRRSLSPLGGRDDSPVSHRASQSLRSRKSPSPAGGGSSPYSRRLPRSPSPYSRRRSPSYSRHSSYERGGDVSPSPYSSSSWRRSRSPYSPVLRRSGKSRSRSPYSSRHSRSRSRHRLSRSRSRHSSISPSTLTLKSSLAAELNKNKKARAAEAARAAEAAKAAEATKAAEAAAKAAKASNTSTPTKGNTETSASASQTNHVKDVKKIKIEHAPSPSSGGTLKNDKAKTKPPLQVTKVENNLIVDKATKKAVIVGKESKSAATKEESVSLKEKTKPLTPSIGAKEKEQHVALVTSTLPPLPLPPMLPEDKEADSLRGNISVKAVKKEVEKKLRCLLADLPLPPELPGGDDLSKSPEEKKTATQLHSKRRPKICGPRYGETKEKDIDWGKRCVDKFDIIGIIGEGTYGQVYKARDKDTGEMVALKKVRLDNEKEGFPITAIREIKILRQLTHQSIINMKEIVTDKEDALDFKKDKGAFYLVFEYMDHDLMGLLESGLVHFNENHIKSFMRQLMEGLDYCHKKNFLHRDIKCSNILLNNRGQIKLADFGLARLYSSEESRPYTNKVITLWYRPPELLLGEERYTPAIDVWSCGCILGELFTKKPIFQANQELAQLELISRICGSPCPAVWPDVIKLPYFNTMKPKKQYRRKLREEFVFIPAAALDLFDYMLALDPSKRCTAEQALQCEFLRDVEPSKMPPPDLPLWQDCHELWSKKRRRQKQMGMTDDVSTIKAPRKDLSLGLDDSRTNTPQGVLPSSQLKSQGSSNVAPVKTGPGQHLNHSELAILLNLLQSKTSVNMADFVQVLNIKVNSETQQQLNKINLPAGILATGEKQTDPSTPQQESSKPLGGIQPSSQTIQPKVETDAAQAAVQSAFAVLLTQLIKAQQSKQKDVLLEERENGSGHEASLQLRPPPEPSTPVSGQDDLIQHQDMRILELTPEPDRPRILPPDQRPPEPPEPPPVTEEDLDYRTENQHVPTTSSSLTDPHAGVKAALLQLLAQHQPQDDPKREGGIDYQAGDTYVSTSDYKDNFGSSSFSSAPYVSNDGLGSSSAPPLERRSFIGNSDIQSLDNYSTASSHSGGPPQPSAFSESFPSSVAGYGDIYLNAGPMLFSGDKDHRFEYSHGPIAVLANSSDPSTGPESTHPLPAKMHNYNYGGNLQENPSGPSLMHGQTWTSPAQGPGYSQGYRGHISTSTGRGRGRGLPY

Row | Structure (SMILES) | IC50 (CK1ε) | IC50 (CK1δ; [5]) | solubility [1] | half-life [2] | half-life [3] | CYP inhibition 2D6 (CYP 2D6) | half-life [4] | CYP inhibition 2C9 (CYP 2C9) | CYP inhibition 3A4 (CYP 3A4) | CYP inhibition 1A2 (CYP 1A2) | further results
1 | Fc1cccc(-n2cnc3c(NCc4nc5c(F)c(F)ccc5[nH]4)nc(N4CCOCC4)nc32)c1 [SR-3029] |  |  |  |  |  |  |  |  |  |  | Selectivity in CDK panel (other CDKs (CDK panel)): good selectivity
2 | Fc1ccc2[nH]c(CNc3nc(N4CCOCC4)nc4c3ncn4-c3cncs3)nc2c1F [Compound 8, N-((4,5-difluoro-1H-benzo[d]imidazol-2-yl)methyl)-2-morpholino-9-(thiazol-5-yl)-9H-purin-6-amine] | 632 nM | 419 nM |  |  |  |  |  |  |  |  | 
3 | COc1cc2nc(CNc3nc(N4CCOCC4)nc4c3ncn4-c3cnn(C)c3)[nH]c2cc1Cl [Compound 10] |  |  |  |  |  |  |  |  |  |  | IC50 (CK1δ; read-out: CK1σ IC50): 7730 nM
4 | Cn1cc(-n2cnc3c(NCc4nc5c(F)c(F)ccc5[nH]4)nc(N4CCOCC4)nc32)cn1 [Compound 1, N-((4,5-difluoro-1H-benzo[d]imidazol-2-yl)methyl)-9-(1-methyl-1H-pyrazol-4-yl) morpholino-9H-purin-6-amine] | 4600 nM | 8600 nM | 6.1 µM (≈ 2.85 µg/mL) | 9 min | 20 min | −3 % inh | 22 min | 23 % inh | 56 % inh | 10 % inh | Kd (CDK13): 5 nM; AUC % Extrap (Mouse PK; IP 30 mg/kg): 0.1%; CI_obs (Mouse PK; IP 30 mg/kg): 13.4 mL/min/kg; AUC(0-t) (Mouse PK; in vivo, IP 30 mg/kg): 25400 ng·h/mL and 55 µM·h; half-life (Mouse PK; in vivo, IP 30 mg/kg, 10/10/80 DMSO/Tween-80/water): 179 min; AUC (Mouse PK; in vivo, IP 30 mg/kg): 25500 ng·h/mL; Cmax (Mouse PK; in vivo, IP 30 mg/kg, read-out: Cmax): 9330 ng/mL and 20 µM; Tmax (Mouse PK; in vivo, IP 30 mg/kg, read-out: Tmax): 60 min; Kd (CDK12): 14 nM
5 | Fc1ccc2[nH]c(CNc3nc(N4CCOCC4)nc4c3ncn4-c3cscn3)nc2c1F [Compound 4, N-((4,5-difluoro-1H-benzo[d]imidazol-2-yl)methyl)-2-morpholino-9-(thiazol-4-yl)-9H-purin-6-amine] |  |  | 0.8 µM (≈ 0.376 µg/mL) | 6 min | 9 min | 57 % inh | 16 min | 89 % inh | 89 % inh | 97 % inh | GI50 (MDA-MB-231 cell line): < 2 nM; GI50 (U87 cell line): < 2 nM
6 | Cn1cc(-n2cnc3c(NCc4nc5cc(Cl)c(Cl)cc5[nH]4)nc(N4CCOC[C@@H]4CO)nc32)cn1 [Compound 6, (S)-(4-(6-(((5,6-dichloro-1H-benzo[d]imidazol-2-yl)methyl)amino)-9-(1-methyl-1H-pyrazol-4-yl)-9H-purin-2-yl)morpholin-3-yl)methanol] |  |  | 0.8 µM (≈ 0.424 µg/mL) | 13 min | 19 min | 42 % inh | 21 min | 69 % inh | 77 % inh | 42 % inh | 

Further lines, with some results ahead:

Row | IC50 (CK1ε) | IC50 (CK1δ; [5]) | solubility [1] | half-life [2] | half-life [3] | CYP inhibition 2D6 (CYP 2D6) | half-life [4] | CYP inhibition 2C9 (CYP 2C9) | CYP inhibition 3A4 (CYP 3A4) | CYP inhibition 1A2 (CYP 1A2) | Structure (SMILES) | further results
7 | 1070 nM | 400 nM |  |  |  |  |  |  |  |  | Fc1ccc2[nH]c(CNc3nc(N4CCOCC4)nc4c3ncn4-c3nccs3)nc2c1F [Compound 9, N-((4,5-difluoro-1H-benzo[d]imidazol-2-yl)methyl)-2-morpholino-9-(thiazol-2-yl)-9H-purin-6-amine] | 
8 | 6500 nM | > 9900 nM | 0.8 µM (≈ 0.373 µg/mL) | 11 min | 18 min | 2 % inh | 39 min | 23 % inh | 55 % inh | 5 % inh | Cn1cc(-n2cnc3c(NCc4nc5cc(F)c(F)cc5[nH]4)nc(N4CCOCC4)nc32)cn1 [Compound 2, N-((5,6-difluoro-1H-benzo[d]imidazol-2-yl)methyl)-9-(1-methyl-1H-pyrazol-4-yl) morpholino-9H-purin-6-amine] | 
9 |  |  | 0.7 µM (≈ 0.371 µg/mL) | 18 min | 25 min | 29 % inh | 27 min | 54 % inh | 54 % inh | 39 % inh | Cn1cc(-n2cnc3c(NCc4nc5cc(Cl)c(Cl)cc5[nH]4)nc(N4CCOC[C@H]4CO)nc32)cn1 [Compound 7, (R)-(4-(6-(((5,6-dichloro-1H-benzo[d]imidazol-2-yl)methyl)amino)-9-(1-methyl-1H-pyrazol-4-yl)-9H-purin-2-yl)morpholin-3-yl)methanol] | AUC % Extrap (Mouse PK; IP 20 mg/kg): 1.0%; CI_obs (Mouse PK; IP 20 mg/kg): 61.6 mL/min/kg; Tmax (Mouse PK; IP 20 mg/kg): 60 min; T1/2 (Mouse PK; IP 20 mg/kg, 10/10/80 DMSO/Tween-80/water): 223 min; AUC (Mouse PK; in vivo, IP 20 mg/kg): 5530 ng·h/mL
10 | 1250 nM | 4740 nM | 3.6 µM (≈ 1.68 µg/mL) | 7 min | 11 min | 2 % inh | 13 min | 23 % inh | 55 % inh | 5 % inh | Cc1cc(-n2cnc3c(NCc4nc5c(F)c(F)ccc5[nH]4)nc(N4CCOCC4)nc32)no1 [Compound 3, N-((4,5-difluoro-1H-benzo[d]imidazol-2-yl)methyl)-9-(5-methylisoxazol-3-yl)-2-morpholino-9H-purin-6-amine] | Kd (CDK13): 4 nM; Kd (CDK12): 22 nM
